Data as given in US10973896B2, “Treatment or prevention of melanoma using photochemical internalization of a melanoma antigen” (PCI Biotech AS, priority 2014, dated 2021).

Key:
Assay type in all cases: in vivo, C57BL/6 mice
[1] = test system: OVA-expressing B16 melanoma cells; test: Therapeutic vaccination of melanoma-bearing mice (Example 1); conditions: immunised after appearance of tumours under the skin; FIG. 2A
[2] = test system: SIINFEKL-specific CD8 T cells; test: Intradermal PCI immunisation, antigen-specific CD8 T cells in blood by pentamer flow cytometry (Example 1); conditions: 10 μg OVA with or without 100 μg TPCS2a i.d., skin illuminated 18 hours later; FIG. 1A
Experimental: C57BL/6 mice were immunised at 6-10 weeks of age. One day prior to immunisation, 10,000 OT-I spleen and lymph node cells were administered by intravenous injection into the recipient C57BL/6 mice (see Example 2). The next day, the fur was shaven off the abdominal region and 100 μl of the vaccine preparations were injected intradermally. The doses of OVA and TPCS2a were 10 μg and 100 μg, respectively. After 18 hours, the anaesthetised mice were placed on the light source for six minutes illumination (4.86 J/cm2) for activation of TPCS2a.
The frequency of antigen-specific CD8 T cells was monitored in blood and spleen by flow cytometry using H-2K^b/SIINFEKL Pro5 pentamer (Proimmune, Oxford, UK). Cell-surface expression of CD4, CD8, and CD44 and intracellular production of IFN-γ was analysed by flow cytometry after Fc-receptor blocking with anti-CD16/32. The intracellular staining was after overnight incubation at 37° C. with 0.1 μg SIINFEKL. Brefeldin A (2.5 μg/ml) was added during the last 4 hours. The cells were fixed with 4% formaldehyde for 10 minutes, permeabilised in 0.1% NP40 for 3 minutes, and stained with anti-IFN-γ for 35 minutes. […] Acquisition was performed on FACSCanto (BD Biosciences, San Jose, USA) and data analysed with FlowJo 8.5.2 (Tree Star, Inc., Ashland, Oreg.). […] Supernatants were collected after 24-72 hours and analysed using cytokine ELISA kits (eBioscience).

[3] = test system: OVA-expressing B16 melanoma cells; test: Prophylactic vaccination against intradermal melanoma challenge (Example 1); conditions: B16 cells intradermally five days after immunisation; FIG. 1D
Experimental: C57BL/6 mice were immunised at 6-10 weeks of age. […] The next day, the fur was shaven off the abdominal region and 100 μl of the vaccine preparations were injected intradermally. The doses of OVA and TPCS2a were 10 μg and 100 μg, respectively.
If not otherwise stated, C57BL/6 mice were vaccinated as described above 4-5 days prior to, or 7-8 days after, the tumour challenge with 500,000 OVA-expressing B16-melanoma cells injected intradermally into one of the mouse flanks; 10,000 OT-I cells were transferred intravenously to the recipient one day before prophylactic vaccination, or one day before B16 injection in the therapeutic vaccination model. […] The tumour growth was monitored by measuring the size of the neoplasm with a calliper.

[4] = test system: splenocytes re-stimulated with SIINFEKL; test: IL-2 and IFN-γ ELISA of re-stimulated splenocytes (Example 2); conditions: day 11 splenocytes, 10 μg OVA alone, or with PCI at 25 μg TPCS2a
Experimental: Alternatively, 2×10^5 splenocytes were re-stimulated in 96-well plates with OVA protein or the SIINFEKL. After 24 and 72 hours, supernatants were collected and analysed for IL-2 or IFN-γ by ELISA (eBioscience—performed according to the manufacturer's instructions).

[5] = test system: CD8, CD44 and IFN-γ positive cells; test: Intracellular IFN-γ staining after SIINFEKL re-stimulation (Example 2)
Experimental: The frequency of OVA-specific CD8 T-cells in blood was monitored by staining the cells with anti-CD8 antibody and H-2K^b/SIINFEKL ProS pentamer (Proimmune, Oxford, UK) for analysis by flow cytometry. The activation status of the cells was further analysed by testing the expression of CD44 and CD69 by flow cytometry. Intracellular staining for IFN-γ was done after overnight stimulation of splenocytes in 24-well plates with the CD8 epitope OVA257-264 (SIINFEKL) at 37 ° C. Brefeldin A was added during the last 4 hours. The cells were then washed and fixed with 4% formaldehyde in PBS for 10 min on ice. Anti-CD16/32 was added to block unspecific binding to Fc receptors. The cells were then permeabilised with 0.1% NP40 in PBS for 3 min and washed before staining with anti-IFN-γ, anti-CD8 and ant-CD44 antibodies (eBioscience or BD Pharmingen). The cells were acquired using FACSCanto (BD Biosciences, San Jose, USA) and analysed using FlowJo 8.5.2 software (Tree Star, Inc., Ashland, Oreg.).

[6] = test system: spleen cells restimulated by SIINFEKL peptide; test: Poly(IC) and CpG experiment, IFN-gamma ELISA of restimulated spleen cells (Example 4); conditions: day 14 spleen cells; FIG. 19B
Experimental: For ELISA analysis 2×10^5 splenocytes were re-stimulated in 96-well plates with 0.005 μg/ml of the SIINFEKL peptide. After 72 hours, supernatants were collected and analysed for IFN-γ by ELISA (eBioscience—performed according to the manufacturer's instructions).
The experiment was performed as described under Materials and Methods, and mouse blood samples from day 7 after vaccination were analysed by flow cytometry as described. Spleen cells from day 14 were restimulated by SIINFEKL peptide and analysed by Interferon-gamma ELISA as described. All mice received OT-1 cells as described. • The following experimental groups were included: • 1. Untreated: Mice received OT-1 cells, but were not vaccinated or illuminated. • 2. OVA: Mice were vaccinated with 10 μg of OVA. They were not illuminated. • 3. OVA 100 μg: Mice were vaccinated with a mixture of 100 μg OVA. They were not illuminated. • 4. OVA 10 μg PCI: Mice were vaccinated with a mixture of 10 μg OVA+150 μg TPCS2a. Illuminated as described. • 5. CpG OVA: Mice were vaccinated with a mixture of 10 μg OVA+50 μg ODN2935 CpG oligonucleotide. They were not illuminated. • 6. CpG OVA/PCI: Mice were vaccinated with a mixture of 10 μg OVA+50 μg ODN2935 CpG oligonucleotide+150 μg TPCS2a. Illuminated as described. • 7. Poly(IC) OVA: Mice were vaccinated with a mixture of 10 μg OVA+50 μg Poly(IC). They were not illuminated. • 8. […]

Question: “OVA: Chicken ovalbumin protein, model antigen expressed by the transfected B16 melanoma cells” was tested. Which “growth of established tumours” value [1] did it give?
Answer: grew readily

Question: And the “frequency of pentamer (H2K^d-SIINFEKL)-binding CD8 T cells in blood” value [2]?
Answer: No or little so-called cross priming

Question: And the “mice that developed tumours” value [3]?
Answer: Fifty

Question: And the “IL-2 secretion by ELISA” value ([4]; 24 hours)?
Answer: weak but clearly measurable

Question: What about the “IFN-γ secretion by ELISA” value ([4]; 72 hours) of the same substance?
Answer: not IFN-γ secretion

Question: What about the “responders for IFN-γ production in splenocytes (better responders among mice tested)” value ([5]; day 11, 10 μg OVA alone, or OVA and PCI (ten mice, 25 and 250 μg TPCS2a)) of the same substance?
Answer: weak responders in all mice tested

Question: What about the “increase in frequency of IFN-γ-producing CD44-positive CD8 cells compared to control mice with OT-I transfer only” value ([5]; day 14 PBMCs, OVA alone, or PCI with illumination at 2 hours) of the same substance?
Answer: 4 fold

Question: And the “frequencies of CD44-positive IFN-γ producing cells in splenocytes” value ([5]; day 23, FIG. 7E right panel)?
Answer: barely detectable frequencies

Question: What about the “IFN-gamma ELISA after restimulation of spleen cells with SIINFEKL peptide” value [6] of the same substance?
Answer: virtually no effect
